Measured values as given in patent publication US20170226507A1, “COORDINATE CONTROL OF PATHOGENIC SIGNALING BY THE MIR-130/301 FAMILY IN PULMONARY HYPERTENSION AND FIBROPROLIFERATIVE DISEASES” (The Brigham and Women's Hospital, Inc., priority 2014, published 2017).
“Also recorded” adds a separate entry of the source.

Tested on: miR-130/301 family
Assay: RT-qPCR of miR-130/301 family members after transfection of oligonucleotide inhibitors (specificity), PAECs
Type: cell-based, human
Conditions: normoxia and hypoxia
Description: FIGS. 14A-14C show the comparison of the specificity of miR-130/301 oligonucleotide inhibitors. (FIG. 14A) Overview of the miRNA silencing approach using seed-targeting tiny locked nucleic acid (LNA) molecules. Tiny LNAs were designed as fully LNA-modified oligonucleotides complementary to the seed region of the miR-130/301 family. The high binding affinity of tiny LNA enables functional inhibition of co-expressed members of miRNA seed families, which leads to de-repression of target mRNAs. Sequences shown in FIG. 14A are miR-130a (SEQ ID NO: 4), miR-130b (SEQ ID NO: 5), miR-301a (SEQ ID NO: 6), miR-301b (SEQ ID NO: 7) and tiny-LNA-130 ([…] SEQ ID NO: 3). […] In the setting of exposure to hypoxia (0.2% O2; 24 h) or normoxia (21% O2; 24 h), expression levels of miR-130/301 family members in PAECs (FIG. 14B) and PASMCs (FIG. 14C) were quantified after transfection with anti-miR-130a versus control (anti-miR-NC) (left panels) or tiny-LNA-130 versus control (tiny-LNA-NC) (right panels). […]
Cells were homogenized in 2 ml of QiaZol reagent (Qiagen). […] Total RNA concentration was determined using a ND-1000 micro-spectrophotometer (NanoDrop Technologies).
Mature miRNA expression was evaluated using TaqMan MicroRNA Assays (Life Technologies/Applied Biosystems) and the Applied Biosystems 7900HT Fast Real Time PCR device (Life Technologies/Applied Biosystems). […]

## tiny-LNA-130: fully LNA-modified tiny LNA oligonucleotide 5′-ATTGCACT-3′ (SEQ ID NO: 3) complementary to the seed region of the miR-130/301 family (all LNA, backbone and methylation of C not given here)
  expression of all miR-130/301 family members: down-regulated; also recorded: effective inhibitors of the entire miR-130/301 family
